Test results reported in publication PMC13576449, “Small-Molecule Activators of PRMT1: Discovery, SAR Analyses, and Proapoptotic Effects in Pancreatic Cancer Cells” (Journal of Medicinal Chemistry, 2026).

How the values were obtained:
[1] = target: T1, FLAG-tagged PRMT4 (Mus musculus, UniProt Q9WVG6); assay: Fluorescence-based in vitro PRMT assay (F-PRMT assay), PRMT4; type: biochemical; conditions: for Experimental result (PRMT4): vs solvent control = 100%
T1 construct: Full-length FLAG-tagged PRMT protein; made in house; host or cells: Sf9 insect cells (baculovirus)
T1 sequence (Q9WVG6 1-608): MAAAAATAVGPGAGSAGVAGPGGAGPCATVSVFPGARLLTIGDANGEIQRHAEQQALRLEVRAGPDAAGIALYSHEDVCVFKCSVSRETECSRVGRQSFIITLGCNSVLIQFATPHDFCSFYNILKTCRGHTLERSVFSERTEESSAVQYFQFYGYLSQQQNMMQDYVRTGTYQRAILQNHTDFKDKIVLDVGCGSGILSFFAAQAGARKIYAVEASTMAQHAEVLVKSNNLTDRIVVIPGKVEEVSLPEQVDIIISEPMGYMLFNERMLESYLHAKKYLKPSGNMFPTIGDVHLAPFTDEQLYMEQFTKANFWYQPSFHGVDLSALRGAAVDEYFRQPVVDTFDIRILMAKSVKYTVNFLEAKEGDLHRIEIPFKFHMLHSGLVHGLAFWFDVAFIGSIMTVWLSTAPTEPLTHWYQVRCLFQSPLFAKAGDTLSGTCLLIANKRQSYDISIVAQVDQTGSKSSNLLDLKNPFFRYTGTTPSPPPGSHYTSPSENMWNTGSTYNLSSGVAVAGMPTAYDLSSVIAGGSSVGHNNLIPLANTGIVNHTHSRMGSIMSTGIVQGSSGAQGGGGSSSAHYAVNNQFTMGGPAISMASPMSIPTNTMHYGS
Method in brief: (§1)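 Baculovirus/Sf9-expressed FLAG-PRMTs (human PRMT3, PRMT6; mouse PRMT4), anti-FLAG purified and used bead-bound, methylated Bz-Arg-AMC with SAM for 2 h at 37 °C, 1,000 rpm. Technical triplicates; no-SAM negative controls.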

[2] = target: T2, FLAG-tagged PRMT6 (Homo sapiens, UniProt Q96LA8); assay: Fluorescence-based in vitro PRMT assay (F-PRMT assay), PRMT6; type: biochemical; conditions: for Experimental result (PRMT6): vs solvent control = 100%
T2 construct: The complete ORFs of human PRMT3 and PRMT6 were inserted; made in house; host or cells: Sf9 insect cells (baculovirus)
Method in brief: as §1

[3] = Tolerability, body weight monitoring of xenograft mice; conditions: female athymic nude mice, 150 mg/kg TR-07 daily, 10 mg/kg gemcitabine every second day, 2 weeks
[4] = Table 1, 100 μM compound, 2 μM PRMT, n = 3, racemates used

T2 sequence (Q96LA8 whole entry): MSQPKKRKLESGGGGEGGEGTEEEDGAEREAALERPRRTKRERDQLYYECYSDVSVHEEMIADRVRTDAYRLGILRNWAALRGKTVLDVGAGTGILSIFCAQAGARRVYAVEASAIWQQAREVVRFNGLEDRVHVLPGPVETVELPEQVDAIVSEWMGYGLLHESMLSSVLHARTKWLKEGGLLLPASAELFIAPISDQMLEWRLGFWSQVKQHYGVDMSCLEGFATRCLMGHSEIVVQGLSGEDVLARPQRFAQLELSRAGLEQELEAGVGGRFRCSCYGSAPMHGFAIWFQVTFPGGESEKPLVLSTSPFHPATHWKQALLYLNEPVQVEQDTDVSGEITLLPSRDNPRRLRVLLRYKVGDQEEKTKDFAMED

CN(C)Cc1cccc(CN/C=C2\C(=O)NC(=O)c3ccccc32)c1.Cl [TR-07, (Z)-1-[3-({[(1,3-Dioxo-2,3-dihydroisoquinolin-4(1H)-lidene)methyl]amino}methyl)phenyl]-N,N-dimethylmethanaminium chloride]
effect on PRMT4 activity (in words) ([1]; 100 μM compound): neither positively nor negatively influencing
Experimental result (PRMT4) [1, 4]: PRMT4 n.e. (Compounds, which did not significantly affect the catalytic activity (less than ±6% change or not significant p-value), are marked with [drawing 8] (no effect))
Experimental result (PRMT4) ([1]; Table S3, 100 µM compound, n≥3): n.e. (did not significantly affect the catalytic activity (less than ±6% change or not significant p-value), are marked with n.e. (no effect))
effect on PRMT6 activity (in words) ([2]; 100 μM compound): neither positively nor negatively influencing
Experimental result (PRMT6) [2, 4]: PRMT6 n.e. (Compounds, which did not significantly affect the catalytic activity (less than ±6% change or not significant p-value), are marked with [drawing 8] (no effect))
Experimental result (PRMT6) ([2]; Table S3, 100 µM compound, n≥3): n.e. (did not significantly affect the catalytic activity (less than ±6% change or not significant p-value), are marked with n.e. (no effect))
tolerability (adverse or systemic toxic effects, body weights) [3]: well tolerated
